Source: article PMC12242638, “Drug Repurposing by Virtual Screening: Identification of New Already Approved ROCK Inhibitors as Promising Drugs to Target Neurodegeneration” (ACS Omega, 2025)
Entries after “also recorded” stand apart in the source; their conditions may differ.

Key:
hROCK2 = hROCK2 (Homo sapiens, UniProt O75116); experiment: HotSpot Kinase Assay, ROCK2 inhibition (Reaction Biology Corp.); format: biochemical
Experimental: (§1) The HotSpot Kinase Assay was used for compound screening on protein kinases, as already reported. The assay was performed in a base reaction buffer containing 20 mM Hepes (pH 7.5), 10 mM MgCl2, 1 mM EGTA, 0.01% Brij-35, 0.02 mg/mL BSA, 0.1 mM Na3VO4, 2 mM DTT, and 1% DMSO, with the required cofactors added individually to each kinase reaction. The substrate was prepared in freshly made base reaction buffer, and cofactors were added accordingly. The indicated kinase was then delivered into the substrate solution and gently mixed. Test compounds, dissolved in 100% DMSO, were added to the kinase reaction mixture using acoustic technology (Echo550; nanoliter range), followed by incubation for 20 min at room temperature. The reaction was initiated by adding ^33P-ATP (1 μM) and incubating for 2 h at room temperature. Kinase activity was detected using the P81 filter-binding method.

[1] = previously reported; cited from earlier work
hROCK1 = hROCK1 (Homo sapiens, UniProt Q13464); experiment: HotSpot Kinase Assay, ROCK1 inhibition (Reaction Biology Corp.); format: biochemical
Sequence of hROCK1 (Q13464 whole entry): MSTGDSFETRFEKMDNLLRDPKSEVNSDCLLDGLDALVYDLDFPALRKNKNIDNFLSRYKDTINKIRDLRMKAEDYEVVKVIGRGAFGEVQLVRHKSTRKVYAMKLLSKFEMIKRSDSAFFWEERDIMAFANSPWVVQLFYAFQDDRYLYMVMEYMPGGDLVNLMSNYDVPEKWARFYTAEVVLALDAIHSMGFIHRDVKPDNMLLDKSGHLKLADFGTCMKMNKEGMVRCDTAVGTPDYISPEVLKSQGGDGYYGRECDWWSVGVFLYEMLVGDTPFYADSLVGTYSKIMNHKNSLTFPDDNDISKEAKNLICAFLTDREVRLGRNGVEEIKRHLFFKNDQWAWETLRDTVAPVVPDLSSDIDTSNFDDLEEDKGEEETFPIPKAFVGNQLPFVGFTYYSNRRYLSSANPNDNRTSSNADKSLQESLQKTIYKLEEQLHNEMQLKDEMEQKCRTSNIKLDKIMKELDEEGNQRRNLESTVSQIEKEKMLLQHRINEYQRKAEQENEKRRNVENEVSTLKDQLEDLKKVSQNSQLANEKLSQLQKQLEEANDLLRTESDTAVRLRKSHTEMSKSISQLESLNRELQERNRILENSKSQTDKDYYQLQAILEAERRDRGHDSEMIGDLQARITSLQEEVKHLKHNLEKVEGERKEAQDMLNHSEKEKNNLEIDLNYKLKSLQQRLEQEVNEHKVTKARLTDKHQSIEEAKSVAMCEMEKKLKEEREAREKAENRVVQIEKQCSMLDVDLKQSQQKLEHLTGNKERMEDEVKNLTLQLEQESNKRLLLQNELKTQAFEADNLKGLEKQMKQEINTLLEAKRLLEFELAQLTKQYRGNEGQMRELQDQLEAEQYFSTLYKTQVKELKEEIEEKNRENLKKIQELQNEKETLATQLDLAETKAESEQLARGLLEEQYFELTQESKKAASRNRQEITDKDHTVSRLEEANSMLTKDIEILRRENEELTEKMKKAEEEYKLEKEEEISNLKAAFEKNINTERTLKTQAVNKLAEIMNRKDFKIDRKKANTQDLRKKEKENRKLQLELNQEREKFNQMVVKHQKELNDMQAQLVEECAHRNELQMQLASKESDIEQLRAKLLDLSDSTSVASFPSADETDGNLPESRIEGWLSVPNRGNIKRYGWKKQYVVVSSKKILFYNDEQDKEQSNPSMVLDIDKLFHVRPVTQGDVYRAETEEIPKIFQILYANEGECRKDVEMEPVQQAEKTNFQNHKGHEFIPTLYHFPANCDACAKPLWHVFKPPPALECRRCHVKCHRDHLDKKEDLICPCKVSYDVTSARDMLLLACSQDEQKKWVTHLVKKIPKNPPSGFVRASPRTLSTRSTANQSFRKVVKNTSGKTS
Experimental: as §1

ROCK1 = settings: introduction, literature values; read-out: ROCK1 IC50 of approved ROCK inhibitors; cited from earlier work
ROCK2 = settings: introduction, literature values; read-out: ROCK2 IC50 of approved ROCK inhibitors; cited from earlier work
[2] = system: mouse hippocampal neurons; settings: primary cultures of mouse hippocampal neurons; cited from earlier work
[3] = system: murine primary astrocytes; experiment: GFAP and C3 immunocytochemistry in LPS-treated primary cortical astrocytes; format: cell-based, C57BL/6 mice (Mus musculus); settings: 24 h; for C3 immunostaining in LPS-treated astrocyte cultures: 1 μM ruxolitinib, LPS 10 μg/mL
Experimental: Primary cortical astrocyte cultures were prepared from brains of P0–3 C57BL/6 mice as described by Matias et al. The meninges of the brain were removed to cortex desiccation in Gey’s buffer, and the cerebral cortex was maintained in DMEM/F12, supplemented with 10% FBS. […] After 24 h, cultures were washed and fixed.
Astrocyte cultures were fixed with 4% PFA in phosphate-buffered saline (PBS, pH 7.4) for 15 min, and nonspecific sites were blocked with 3% BSA, 5% normal goat serum, and 0.2% Triton X-100 diluted in PBS for 1 h, before incubation with the rabbit anti-GFAP (1:1,000, DAKO Cytomation, Cat. Z0334) and the rat anti-C3 (1:100, Abcam, Cat. ab11862) at 4 °C overnight. Subsequently, the cells were thoroughly washed with PBS and incubated with secondary antibodies at room temperature for 2 h.

SH-SY5Y cells = experiment: MTT cell viability, SH-SY5Y cell line; format: cell-based; settings: 0.1 to 5 μM, 24 h
Experimental: (§2) Prior to the experiments, SH-SY5Y cells were cultured in DMEM/F12 plus 10% FBS (Fetal bovine serum, Invitrogene). […] The cells were incubated for 24 h under these conditions.
(§3) C6 and SH-SY5Y cells were plated in a 96-well plate with 1 × 10^4 cells per well. Cell morphology was observed using an EVOS phase-contrast microscope (Invitrogen, ThermoFisher Scientific, USA), and viability was evaluated using a 3-[4,5-dimethylthiazol-2-yl]-2,5-diphenyltetrazolium bromide (MTT) reduction assay. After 24 h of treatment, cells were incubated with 0.5 mg/mL MTT dye for 3 h at 37 °C and 5% CO2. This assay evaluates the labeling activity of mitochondrial dehydrogenases such as succinate dehydrogenase by reducing MTT (yellow) to a purple formazan salt. The culture media were removed, and the crystals were dissolved in 150 μL DMSO. The intensity of formazan was measured using a GloMax spectrophotometer (Promega) at a wavelength of 560 nm.

C6 cells = experiment: MTT cell viability, C6 glioma cell line; format: cell-based; settings: 0.1 to 5 μM, 24 h
Experimental: as §2, §3

PKCα = PKCα (Homo sapiens, UniProt P17252); experiment: HotSpot Kinase Assay, AGC kinase selectivity, PKCα; format: biochemical
Experimental: as §1

Sequence of hROCK2 (O75116 whole entry): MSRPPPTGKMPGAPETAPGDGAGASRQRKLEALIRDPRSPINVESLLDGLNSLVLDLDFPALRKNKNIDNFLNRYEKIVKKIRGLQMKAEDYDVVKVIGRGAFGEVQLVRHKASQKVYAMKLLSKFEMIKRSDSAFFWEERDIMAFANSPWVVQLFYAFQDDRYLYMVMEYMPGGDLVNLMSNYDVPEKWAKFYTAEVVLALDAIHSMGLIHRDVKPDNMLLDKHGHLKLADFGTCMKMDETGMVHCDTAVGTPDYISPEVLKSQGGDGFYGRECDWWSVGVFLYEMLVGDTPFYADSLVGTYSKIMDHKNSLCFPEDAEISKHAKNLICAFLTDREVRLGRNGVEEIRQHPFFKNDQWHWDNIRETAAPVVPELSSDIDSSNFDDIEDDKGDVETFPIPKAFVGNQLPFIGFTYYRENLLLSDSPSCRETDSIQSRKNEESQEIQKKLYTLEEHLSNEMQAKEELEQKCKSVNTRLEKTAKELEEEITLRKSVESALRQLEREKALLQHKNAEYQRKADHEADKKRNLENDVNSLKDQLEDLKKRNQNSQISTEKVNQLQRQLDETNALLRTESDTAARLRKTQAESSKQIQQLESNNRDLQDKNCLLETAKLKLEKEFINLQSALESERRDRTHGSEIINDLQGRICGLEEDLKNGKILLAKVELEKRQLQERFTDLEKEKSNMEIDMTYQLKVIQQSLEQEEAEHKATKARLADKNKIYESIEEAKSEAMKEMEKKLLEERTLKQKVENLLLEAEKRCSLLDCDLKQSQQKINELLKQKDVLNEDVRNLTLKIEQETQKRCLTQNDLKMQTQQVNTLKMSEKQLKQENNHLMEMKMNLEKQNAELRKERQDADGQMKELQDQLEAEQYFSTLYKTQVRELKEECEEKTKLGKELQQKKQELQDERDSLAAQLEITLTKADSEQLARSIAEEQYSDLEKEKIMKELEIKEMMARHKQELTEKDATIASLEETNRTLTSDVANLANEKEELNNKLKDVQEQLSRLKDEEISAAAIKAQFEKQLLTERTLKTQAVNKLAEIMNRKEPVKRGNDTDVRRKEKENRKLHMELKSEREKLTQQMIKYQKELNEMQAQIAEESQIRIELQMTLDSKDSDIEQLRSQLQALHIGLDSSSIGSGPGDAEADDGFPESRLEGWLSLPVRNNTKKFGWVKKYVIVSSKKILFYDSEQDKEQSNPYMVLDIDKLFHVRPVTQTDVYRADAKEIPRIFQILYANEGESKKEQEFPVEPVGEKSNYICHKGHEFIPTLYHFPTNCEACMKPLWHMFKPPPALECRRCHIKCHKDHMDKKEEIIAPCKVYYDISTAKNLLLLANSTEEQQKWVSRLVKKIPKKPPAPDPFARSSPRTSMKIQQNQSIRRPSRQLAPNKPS

SMILES	IC50 (hROCK2)	IC50 (hROCK1)	IC50 (ROCK1)	IC50 (ROCK2)	other results
CCS(=O)(=O)N1CC(CC#N)(n2cc(-c3ncnc4[nH]ccc34)cn2)C1 [Baricitinib (37), baricitinib]	0.011 µM	0.019 µM			crossing of the blood-brain barrier (BBB) [1]: cross the blood-brain barrier (BBB)
O=C(CCNNC(=O)c1ccncc1)NCc1ccccc1 [Nialamide (40), nialamide]	29.2 µM	18.8 µM			
C[C@H]1CNCCCN1S(=O)(=O)c1cccc2cncc(F)c12 [Ripasudil (3), Ripasudil]			0.051 µM	0.019 µM	
O=S(=O)(c1cccc2cnccc12)N1CCCNCC1 [Fasudil (2), Fasudil]			[…]		levels of Tau phosphorylation [2]: decreased the levels of Tau phosphorylation
COc1cc2nccc(Oc3ccc(NC(=O)Nc4cc(C)on4)c(Cl)c3)c2cc1OC [Tivozanib (39), tivozanib]	0.856 µM	12.9 µM			selectivity for ROCK2 over ROCK1 (hROCK2; from the IC50 values): 15 fold
N#CC[C@H](C1CCCC1)n1cc(-c2ncnc3[nH]ccc23)cn1 [Ruxolitinib (36), ruxolitinib]					crossing of the blood-brain barrier (BBB) [1]: cross the blood-brain barrier (BBB); C3 immunostaining in LPS-treated astrocyte cultures ([3]; listed as ruxolitinib): decreased C3 immunostaining; also recorded: reversed this event; C3 immunostaining in LPS-treated astrocyte cultures ([3]; listed as ruxolitinib (36)): reduce C3 immunolabeling; GFAP intermediate filament organization and process extension of astrocytes ([3]; 1 μM): did not impact intermediate filament organization and process extension; cell viability (MTT), SH-SY5Y (neuronal cell line) (SH-SY5Y cells; listed as ruxolitinib): No significant impact on the viability; cell viability (MTT), SH-SY5Y (neuronal cell line) (SH-SY5Y cells; listed as ruxolitinib (36)): did not adversely affect the viability; also recorded: does not affect the viability; cell viability (MTT), C6 glioma (astrocytic cell line) (C6 cells; listed as ruxolitinib): No significant impact on the viability; cell viability (MTT), C6 glioma (astrocytic cell line) (C6 cells; listed as ruxolitinib (36)): did not adversely affect the viability; also recorded: does not affect the viability; IC50 (PKCα): 1.25 µM
Cc1cc(Nc2ncnc3ccc(NC4=NC(C)(C)CO4)cc23)ccc1Oc1ccn2ncnc2c1 [Tucatinib (41), tucatinib]	18.6 µM	51.5 µM			
O=C1CCc2cc(OCCCCc3nnnn3C3CCCCC3)ccc2N1 [Cilostazole]					ROCK2 % (30 µM), printed under IC50 ROCK2 head (hROCK2; 30 µM): 8%; ROCK1 % (30 µM), printed under IC50 ROCK1 head (hROCK1; 30 µM): 3%
